Data taken from PubChem BioAssay AID652280 (Broad Institute, 2013).
Results filed as inconclusive are left out. Active and inactive are the calls of the source. How the calls were made is not given here.

What was measured:
[1] = test system: NIH/3T3 mouse fibroblast toxicity, plate reader; test: mouse embryonic fibroblast toxicity – cell-based, plate reader, dry powder, set 2, cytotoxicity control, dose response (AID 652280)
[2] = as above; settings: NIH/3T3 mouse fibroblast toxicity, plate reader; at 16 µM (top of the series)

SMILES | AC50 [1] | activity change, negative = toxicity [2]
C[C@@H]1CN([C@@H](C)CO)C(=O)c2cccc(NC(=O)c3ccncc3)c2O[C@H]1CN(C)Cc1ccc(Oc2ccccc2)cc1 | 3.31 µM | –
CC(C)N1CC2(CN(Cc3ccc(F)cc3)C2)Oc2c(NC(=O)c3ccncc3)cccc2C1=O | – | -0.418% (inactive)
COC[C@H](C)N1C[C@H](C)[C@@H](CN(C)Cc2ccc(Oc3ccccc3)cc2)Oc2c(NC(=O)c3ccncc3)cccc2C1=O | – | 128% (inactive)
Cc1ccccc1CN(C)C[C@H]1Oc2c(NC(=O)c3ccncc3)cccc2C(=O)N([C@@H](C)CO)C[C@@H]1C | – | -4.8% (inactive)
CC(C)N1CC2(CN(Cc3ccccc3F)C2)Oc2c(NC(=O)c3ccncc3)cccc2C1=O | – | 6.11% (inactive)
CC(C)(C)[S@@](=O)N1Cc2cc(C(=O)NCc3ccc4c(c3)OCO4)nc(-c3cccc(-c4ccccc4)c3)c2[C@H]1CCO | – | 14.4% (inactive)
C[C@H]1CN([C@@H](C)CO)C(=O)c2cccc(NC(=O)c3ccncc3)c2O[C@@H]1CN(C)Cc1c(Cl)cccc1Cl | – | 16% (inactive)
CN(C)CC#Cc1cccc(-c2nc(C(=O)N3CCN(Cc4ccccc4)CC3)cc3c2[C@H](CCO)N(S(=O)C(C)(C)C)C3)c1 (stereo partly specified) | – | -3.09% (inactive)
C[C@@H]1CN([C@@H](C)CO)C(=O)c2cccc(NC(=O)c3ccncc3)c2O[C@H]1CN(C)Cc1cccc(Cl)c1 | – | -5.45% (inactive)
CN(C)C(=O)c1cccc(-c2ccc([C@@H]3[C@H]4CN(C(=O)C5CCC5)CCCCN4[C@H]3CO)cc2)c1 | – | 5.4% (inactive)
C[C@@H](CO)N1CC[C@H](CNC(=O)OC(C)(C)C)Oc2c(cccc2[N+](=O)[O-])C1=O | – | 16.7% (inactive)
CC(C)N1C[C@H](C)[C@@H](CN(C)Cc2ccc(Cl)c(Cl)c2)Oc2c(cccc2-c2nn[nH]n2)C1=O | – | -0.771% (inactive)
C[C@H]1CN([C@@H](C)CO)C(=O)c2cccc(NC(=O)c3ccncc3)c2O[C@@H]1CN(C)Cc1ccc(Cl)cc1 | – | -41.2% (inactive)
CN(C)C(=O)c1ccc(-c2ccc([C@H]3[C@H](CO)N4CCCCN(CC5CC5)C[C@@H]34)cc2)cc1 | – | 24.4% (inactive)
CN(C)C(=O)c1ccc(-c2ccc([C@H]3[C@H](CO)N4CCCCN(C(=O)C5CCC5)C[C@@H]34)cc2)cc1 | – | -17% (inactive)
Cc1cccc(-c2ccc([C@H]3[C@H](CO)N4CCCCN(C(=O)c5cccnc5)C[C@@H]34)cc2)c1 | – | -10.6% (inactive)
CC(C)N1C[C@H](C)[C@@H](CN(C)Cc2ccc(Cl)cc2)Oc2c(C(=O)Nc3ccncc3)cccc2C1=O | – | -7.6% (inactive)
CN(C)C(=O)c1cccc(-c2ccc([C@@H]3[C@H](CO)N4CCCCN(C(=O)C5CCC5)C[C@@H]34)cc2)c1 | – | -3.74% (inactive)
O=C(Cc1ccccn1)N1CCCCN2[C@@H](CO)[C@H](c3ccc(-c4ccc(F)cc4)cc3)[C@@H]2C1 | – | -8.79% (inactive)
C[C@@H]1CN([C@@H](C)CO)C(=O)c2cccc(NC(=O)c3ccncc3)c2O[C@H]1CN(C)C | – | -10.2% (inactive)
CCC(=O)N1CC[C@@H]2[C@H]1c1cc(-c3ccccc3)ccc1N(C)[C@@H]2CO | – | -26.5% (inactive)
